In patent publication US9765087B2, “Benzimidazole derivatives” (ENANTA PHARMACEUTICALS, INC., priority 2009, dated 2017) one finds EC50 data, which are given here for 30 compounds.

The test relates to HCV 1b genotype replicon. The test is described as follows: HCV replicon assay (qRT-PCR or luciferase), genotype 1b. It counts as cell-based. Particulars: Hepatitis C virus. An excerpt: HCV replicon cell lines (kindly provided by R. Bartenschlager) isolated from colonies as described by Lohman et. al. (Lohman et al. (1999) Science 285: 110-113, expressly incorporated by reference in its entirety) and used for all experiments. The HCV replicon has the nucleic acid sequence set forth in EMBL Accession No.: AJ242651, the coding sequence of which is from nucleotides 1801 to 8406.
The coding sequence of the published HCV replicon was synthesized and subsequently assembled in a modified plasmid pBR322 (Promega, Madison, Wis.) using standard molecular biology techniques. One replicon cell line (“SGR 11-7”) stably expresses HCV replicon RNA which consists of (i) the HCV 5′UTR fused to the first 12 amino acids of the capsid protein, (ii) the neomycin phosphotransferase gene (neo), (iii) the IRES from encephalomyocarditis virus (EMCV), and (iv) HCV […] to NSSB genes and the HCV 3′UTR. Another replicon cell line (“Huh-luc/neo-ET”) described by Vrolijk et. al. (Vrolijk et. al. (2003) Journal of Virological Methods 110:201-209, expressly incorporated by reference in its entirety) stably expresses HCV replicon RNA which consists of (i) the HCV 5′UTR fused to the first 12 amino acids of the capsid protein, (ii) the firefly luciferase reporter gene, (iii) the ubiquitin gene, (iv) the neomycin phosphotransferase gene (neo), (v) the IRES from encephalomyocarditis virus (EMCV), and (vi) HCV NS3 to NS5B genes that harbor cell culture adaptive mutations (E1202G, T1280I, K1846T) and the HCV 3′UTR.
These cell lines were maintained at 37° C., 5% CO2, 100% relative humidity in DMEM (Cat#11965-084, Invitrogen), with 10% fetal calf serum (“FCS”, Invitrogen), 1% non-essential amino acids (Invitrogen), 1% of Glutamax (Invitrogen), 1% of 100× penicillin/streptomycin (Cat#15140-122, Invitrogen) and Geneticin (Cat#10131-027, Invitrogen) at 0.75 mg/ml or 0.5 mg/ml for 11-7 and Huh-luc/neo-ET cells, respectively.
EC50 values of single agent compounds and combinations were determined by HCV RNA detection using quantitative RT-PCR, according to the manufacturer's instructions, with a TAQMAN® One-Step RT-PCR Master Mix Reagents Kit (Cat#AB 4309169, Applied Biosystems) on an ABI Model 7500 thermocycler. The TaqMan primers used for detecting and quantifying HCV RNA were obtained from Integrated DNA Technologies. HCV RNA was normalized to GAPDH RNA levels in drug-treated cells, which is detected and quantified using the Human GAPDH Endogenous Control Mix (Applied Biosystems, AB 4310884E). Total cellular RNA is purified from 96-well plates using the RNAqueous 96 kit (Ambion, Cat# AM1812). Chemical agent cytotoxicity is evaluated using an MTS assay according to the manufacturer's directions (Promega).
Since clinical drug resistance often develops in viral infections following single agent therapies, there is a need to assess the additive, antagonistic, or synergistic properties of combination therapies. We used the HCV replicon system to assess the potential use of the compound of the present invention or in combination therapies with Interferon alpha, cyclosporine analogs and inhibitors targeting other HCV proteins. The acute effects of a single or combinations of drugs are studied in the “Huh-luc/neo-ET” replicon with each chemical agent titrated in an X or Y direction in a 6 point two-fold dilution curve centered around the EC50 of each drug. Briefly, replicon cells are seeded at 7,000 cells per well in 90 ul DMEM (without phenol red, Invitrogen Cat.#31053-036) per well with 10% FCS, 1% non-essential amino acids, 1% of Glutamax and 1% of 100× penicillin/streptomycin and incubated overnight at 37° C., 5% CO2, 100% relative humidity. […]

[1] abbreviates: Table 11, qRT-PCR or luciferase assay, read-out: Genotype-1b replicon EC50 Range.
Setting [2] is: Table 12, numeric values, read-out: 1b EC50.
[3] abbreviates: Table 12, range class, read-out: 1b EC50 Range.

By EC50 is commonly meant the concentration that produces a half-maximal response.

Read-outs that look alike come from different tables or passages of the source. Where only a bound is given, the exact number is not on record here.

As to `CC[C@H](C)[C@H](NC(=O)OC)C(=O)N1CCC[C@H]1c1ncc(-c2ccc(C#Cc3ccc4nc([C@@H]5CCCN5C(=O)[C@@H](NC(=O)OC)[C@@H](C)CC)[nH]c4c3)cc2)[nH]1` [Example 526], under setting [1], the EC50 was less than 1 nM.
Take `COC(=O)N[C@H](C(=O)N1CCC[C@H]1c1ncc(-c2ccc(C#Cc3ccc4nc([C@@H]5CCCN5C(=O)[C@@H](NC(=O)OC)[C@@H](C)O)[nH]c4c3)cc2)[nH]1)[C@@H](C)O` [Example 527]: under setting [1], the half-maximal effective concentration (EC50) is less than 1 nM.
For the compound `COC(=O)N[C@H](C(=O)N1CCC[C@H]1c1ncc(-c2ccc(C#Cc3ccc4nc([C@@H]5CCCN5C(=O)[C@@H](NC(=O)OC)C5CC5)[nH]c4c3)cc2)[nH]1)C(C)C` [Example 528], the 50% effective concentration (EC50) under setting [1] is less than 1 nM.
Consider `COC(=O)N[C@H](C(=O)N1CCC[C@H]1c1ncc(-c2ccc(C#Cc3ccc4nc([C@@H]5CCCN5C(=O)[C@@H](NC(=O)OC)C(C)(C)C)[nH]c4c3)cc2)[nH]1)C(C)C` [Example 529], for which the half-maximal effective concentration (EC50) under setting [1] is less than 1 nM.
On the same count and under the same terms, the figure for `COC(=O)N[C@H](C(=O)N1CCC[C@H]1c1ncc(-c2ccc(C#Cc3ccc4nc([C@@H]5CCCN5C(=O)[C@@H](NC(=O)OC)C(C)(C)O)[nH]c4c3)cc2)[nH]1)C(C)C` [Example 530] is less than 1 nM; for `COC(=O)N[C@H](C(=O)N1CCC[C@H]1c1ncc(-c2ccc(C#Cc3ccc4nc([C@@H]5CCCN5C(=O)[C@@H](NC(=O)OC)[C@H](C)O)[nH]c4c3)cc2)[nH]1)C(C)C` [Example 531] it is less than 1 nM.
In the case of `CCC(NC(=O)OC)(C(=O)N1CCC[C@H]1c1nc2ccc(C#Cc3ccc(-c4cnc([C@@H]5CCCN5C(=O)[C@@H](NC(=O)OC)C(C)C)[nH]4)cc3)cc2[nH]1)c1ccccc1` (stereo partly drawn) [Example 532], the concentration giving a half-maximal response (EC50) under setting [1] was less than 1 nM.
Still for that read-out and setting: the figure for `COC(=O)N[C@@H](C(=O)N1CCC[C@H]1c1nc2ccc(C#Cc3ccc(-c4cnc([C@@H]5CCCN5C(=O)[C@H](NC(=O)OC)c5ccccc5)o4)cc3)cc2[nH]1)c1ccccc1` [Example 533] is less than 1 nM; for `COC(=O)N[C@@H](C(=O)N1CCC[C@H]1c1nc2ccc(CCc3ccc(-c4cnc([C@@H]5CCCN5C(=O)[C@H](NC(=O)OC)c5ccccc5)o4)cc3)cc2[nH]1)c1ccccc1` [Example 534] it is less than 1 nM.
Same read-out and setting: the figure for `COC(=O)N[C@H](C(=O)N1C[C@H](O)C[C@H]1c1ncc(-c2ccc(C#Cc3ccc4nc([C@@H]5CCCN5C(=O)[C@@H](NC(=O)OC)C(C)C)[nH]c4c3)cc2)[nH]1)C(C)C` [Example 535] is less than 1 nM; for `COC(=O)N[C@H](C(=O)N1CCC[C@H]1c1ncc(-c2ccc(C#Cc3ccc4nc([C@]5(Cc6ccccc6)CCCN5C(=O)[C@@H](NC(=O)OC)C(C)C)[nH]c4c3)cc2)[nH]1)C(C)C` [Example 536] it is less than 1 nM; for `COC(=O)N[C@H](C(=O)N1CCC[C@H]1c1ncc(-c2ccc(C#Cc3ccc4nc([C@@H]5C[C@@H](Oc6ccccc6)CN5C(=O)[C@@H](NC(=O)OC)C(C)C)[nH]c4c3)cc2)[nH]1)C(C)C` [Example 537] it is less than 1 nM.
With `COC(=O)N[C@H](C(=O)N1CCC[C@H]1c1ncc(-c2ccc(C#Cc3ccc4nc([C@@H]5C[C@H](Oc6ccccc6)CN5C(=O)[C@@H](NC(=O)OC)C(C)C)[nH]c4c3)cc2)[nH]1)C(C)C` [Example 538], the concentration for a half-maximal effect (EC50) under setting [1] is less than 1 nM.
Same read-out and setting: the figure for `COC(=O)N[C@H](C(=O)N1CCC[C@H]1c1ncc(-c2ccc(C#Cc3ccc4nc([C@]5(C)CCCN5C(=O)[C@@H](NC(=O)OC)C(C)C)[nH]c4c3)cc2)[nH]1)C(C)C` [Example 539] is less than 1 nM.
Same read-out and setting: with `COC(=O)N[C@H](C(=O)N1CCC[C@H]1c1ncc(-c2ccc(C#Cc3ccc4nc([C@@H]5C[C@@H](F)CN5C(=O)[C@@H](NC(=O)OC)C(C)C)[nH]c4c3)cc2)[nH]1)C(C)C` [Example 540] the figure was less than 1 nM.
Turning to `COC(=O)N[C@H](C(=O)N1CCC[C@H]1c1ncc(-c2ccc(C#Cc3ccc4nc([C@@H]5C[C@H]6C[C@H]6N5C(=O)[C@@H](NC(=O)OC)C(C)C)[nH]c4c3)cc2)[nH]1)C(C)C` [Example 541], the EC50 under setting [1] is less than 1 nM.
As to `COC(=O)N[C@H](C(=O)N1CCC[C@H]1c1ncc(-c2ccc(C#Cc3ccc4nc([C@@H]5CC[C@H](C)N5C(=O)[C@@H](NC(=O)OC)C(C)C)[nH]c4c3)cc2)[nH]1)C(C)C` [Example 542], the EC50 under setting [1] is less than 1 nM.
As to `COC(=O)N[C@H](C(=O)N1CC2(CC2)C[C@H]1c1nc(-c2ccc(C#Cc3ccc4[nH]c([C@@H]5CC6(CC6)CN5C(=O)[C@@H](NC(=O)OC)C(C)C)nc4c3)cc2)c[nH]1)C(C)C` [Example 548], the EC50 under setting [2] is 0.004 nM.
The same measure, in the same setting: with `COC(=O)N[C@H](C(=O)N1CCC[C@H]1c1ncc(-c2ccc(C#Cc3ccc4nc([C@@H]5C[C@]6(CC(C)=NO6)CN5C(=O)[C@@H](NC(=O)OC)C(C)C)[nH]c4c3)cc2)[nH]1)C(C)C` [Example 554] the figure was 0.028 nM; with `COC(=O)N[C@H](C(=O)N1C[C@@H](C)C[C@H]1c1ncc(-c2ccc(C#Cc3ccc4nc([C@@H]5C[C@@]6(CCCO6)CN5C(=O)[C@@H](NC(=O)OC)C(C)C)[nH]c4c3)cc2)[nH]1)C(C)C` [Example 559], 0.014 nM.
Regarding `COC(=O)N[C@H](C(=O)N1CC(C)(C)C[C@H]1c1ncc(-c2ccc(C#Cc3ccc4nc([C@@H]5C[C@@]6(CCCO6)CN5C(=O)[C@@H](NC(=O)OC)C(C)C)[nH]c4c3)cc2)[nH]1)C(C)C` [Example 560], the EC50 under setting [3] was less than 1 nM.
`COC(=O)N[C@H](C(=O)N1CCC[C@H]1c1ncc(-c2ccc(C#Cc3ccc4nc([C@@H]5C[C@@]6(CC=CCO6)CN5C(=O)[C@@H](NC(=O)OC)C(C)C)[nH]c4c3)cc2)[nH]1)C(C)C` [Example 563]: the concentration giving a half-maximal response (EC50) under setting [2] was 0.012 nM.
The same measure, in the same setting: the figure for `COC(=O)N[C@H](C(=O)N1CCC[C@H]1c1ncc(-c2ccc(C#Cc3ccc4nc([C@@H]5C[C@]6(CCCOC6)CN5C(=O)[C@@H](NC(=O)OC)C(C)C)[nH]c4c3)cc2)[nH]1)C(C)C` [Example 570] is 0.008 nM; for `COC(=O)N[C@H](C(=O)N1CC2(CC2)C[C@H]1c1nc2cc(C#Cc3ccc(-c4cn(O)c([C@@H]5CC6(CC6)CN5C(=O)[C@@H](NC(=O)OC)C(C)C)n4)cc3)ccc2[nH]1)C(C)C` [Example 571] it is 0.013 nM; for `COC(=O)N[C@H](C(=O)N1CC2(CC2)C[C@H]1c1nc2cc(C#Cc3ccc(-c4coc([C@@H]5CC6(CC6)CN5C(=O)[C@@H](NC(=O)OC)C(C)C)n4)cc3)ccc2[nH]1)C(C)C` [Example 577] it is 0.16 nM.
Same read-out and setting: with `COC(=O)N[C@H](C(=O)N1CC2(CC2)C[C@H]1c1ncc(-c2ccc(C#Cc3ccc4nc([C@@H]5CC6(CC6)CN5C(=O)[C@H](NC(=O)OC)c5ccccc5)[nH]c4c3)cc2)[nH]1)C(C)C` [Example 578] the figure was 0.006 nM.
As to `COC(=O)N[C@H](C(=O)N1CCC[C@H]1c1ncc(-c2ccc(C#Cc3ccc4nc([C@@H]5C[C@@]6(CC(C)=NO6)CN5C(=O)[C@@H](NC(=O)OC)C(C)C)[nH]c4c3)cc2)[nH]1)C(C)C` [Example 623], the EC50 under setting [3] is less than 1 nM.
Consider `COC(=O)N[C@H](C(=O)N1C[C@H](C)C[C@H]1c1ncc(-c2ccc(C#Cc3ccc4nc([C@@H]5C[C@@]6(CCCO6)CN5C(=O)[C@@H](NC(=O)OC)C(C)C)[nH]c4c3)cc2)[nH]1)C(C)C` [Example 628], for which the concentration for a half-maximal effect (EC50) under setting [2] is 0.009 nM.
The same measure, in the same setting: the figure for `COC(=O)N[C@H](C(=O)N1CCC[C@H]1c1ncc(-c2ccc(C#Cc3ccc4nc([C@@H]5C[C@@]6(CCCCO6)CN5C(=O)[C@@H](NC(=O)OC)C(C)C)[nH]c4c3)cc2)[nH]1)C(C)C` [Example 632] is 0.013 nM; for `COC(=O)N[C@H](C(=O)N1C[C@@](C)(F)C[C@H]1c1ncc(-c2ccc(C#Cc3ccc4nc([C@@H]5C[C@@]6(CCCO6)CN5C(=O)[C@@H](NC(=O)OC)C(C)C)[nH]c4c3)cc2)[nH]1)C(C)C` [Example 636] it is 0.02 nM.
